Laboratory results published in ChEMBL document CHEMBL1127470, “Analogues of the marine immunosuppressant microcolin A: preparation and biological activity” (J Med Chem, 1994).

Columns and labels:
[1] = species: Mus musculus; assay: The compound was tested for inhibition of murine splenocyte proliferation by [3H]thymidine incorporation; assay type: functional, organism-based
[2] = species: Homo sapiens; assay: The compound was tested for inhibition of human splenocyte proliferation by [3H]thymidine incorporation; assay type: functional, organism-based

Row | SMILES | EC50 [1] | EC50 [2]
1 | CCCCC(C)CC(C)C(=O)N(C)[C@@H](CC(C)C)C(=O)N[C@H](C(=O)N(C)[C@H](C(=O)N1C[C@@H](O)C[C@H]1C(=O)N1C(=O)C=CC1C)C(C)C)C(C)OC(C)=O (some centres not stated) | 0.02 nM | 0.02 nM
2 | CCCCC(C)CC(C)C(=O)N(C)[C@@H](CC(C)C)C(=O)N[C@H](C(=O)N(C)[C@H](C(=O)N1C[C@@H](O)C[C@H]1C(=O)N1C(=O)C=CC1C)C(C)C)C(C)O (some centres not stated) | 0.006 nM | 0.04 nM
3 | CCCCC(C)CC(C)C(=O)N(C)[C@@H](CC(C)C)C(=O)N[C@H](C(=O)N(C)[C@H](C(=O)N1C[C@@H](OC(C)=O)C[C@H]1C(=O)N1C(=O)C=CC1C)C(C)C)C(C)OC(C)=O (some centres not stated) | 19 nM | 10.2 nM
4 | CCCCC(C)CC(C)C(=O)N(C)[C@@H](CC(C)C)C(=O)N[C@H](C(=O)N(C)[C@H](C(=O)N1CCC[C@H]1C(=O)N1C(=O)C=CC1C)C(C)C)C(C)OC(C)=O (some centres not stated) | 20.5 nM | 4.1 nM
5 | CCCCC(C)CC(C)C(=O)N(C)[C@@H](CC(C)C)C(=O)N[C@H](C(=O)N(C)[C@H](C(=O)OC)C(C)C)C(C)OO (some centres not stated) | 380 nM | 380 nM
6 | CCCCC(C)CC(C)C(=O)N(C)[C@@H](CC(C)C)C(=O)N[C@H](C(=O)N(C)[C@H](C(=O)N1C[C@@H](O)C[C@H]1C(=O)OC)C(C)C)[C@@H](C)O (some centres not stated) | > 781 nM | > 781 nM
7 | CCCCC(C)CC(C)C(=O)N(C)[C@@H](CC(C)C)C(=O)N[C@@H]1C(=O)N(C)[C@@H](C(C)C)C(=O)O[C@@H]1C (some centres not stated) | 10 nM | 8.1 nM
8 | CCCCC(C)CC(C)C(=O)N(C)[C@@H](CC(C)C)C(=O)N[C@H](C(=O)N(C)[C@H](C(=O)N1CCC[C@H]1C(=O)N1C(=O)CCC1C)C(C)C)C(C)OC(C)=O (some centres not stated) | > 668 nM | 341 nM
9 | CC1C=CC(=O)N1C(=O)[C@@H]1C[C@H](O)CN1 (some centres not stated) | > 2400 nM | > 2400 nM
10 | CCCCC(C)CC(C)C(=O)N(C)[C@@H](CC(C)C)C(=O)N[C@H](C(=O)N(C)[C@H](C(=O)N1C[C@@H](O)C[C@H]1C(=O)N1C(=O)CCC1C)C(C)C)C(C)OC(C)=O (some centres not stated) | > 668 nM | > 668 nM
11 | CCCCC(C)CC(C)C(=O)N(C)[C@@H](CC(C)C)C(=O)N[C@H](C(=O)N(C)[C@H](C(=O)N1CC(=O)C[C@H]1C(=O)N1C(=O)C=CC1C)C(C)C)C(C)OC(C)=O (single isomer, unassigned) | 5.4 nM | 5.4 nM
